Like-named read-outs stand apart in the source and are kept apart here.
Key:
[1] = test system: MV-4-11; experiment: Tumor cell proliferation inhibition (CellTiter-Meiluncell Luminescent Cell Viability Assay); format: cell-based; details: Homo sapiens, 96 hours; for inhibition at 0.01 µM: MV4-11, 10 nM, read-out: Inhibition Rate at 10 nM (%); for inhibition at 0.5 µM: MV4-11, 500 nM, read-out: Inhibition Rate at 500 nM (%)
Outline: (§1)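 Following overnight seeding, tumor cells received serial compound dilutions to final levels that included 10 nM and 500 nM. Viability was assessed by luminescence at the end of the specified exposure time. Cultures were kept at 37°C with 5% CO2.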

[2] = test system: MCF-7; experiment: as above; format: cell-based; details: Homo sapiens, 96 hours, Table I-2, ALK inhibitors; for inhibition at 0.01 µM: MCF7, 10 nM, read-out: Inhibition Rate at 10 nM (%); for inhibition at 0.5 µM: MCF7, 500 nM, read-out: Inhibition Rate at 500 nM (%)
Outline: as §1

[3] = test system: MM.1S; experiment: as above; format: cell-based; details: Homo sapiens, MM1.S, MM.1S, 96 hours; for inhibition at 0.01 µM: 10 nM, read-out: Inhibition Rate at 10 nM (%); for inhibition at 0.5 µM: 500 nM, read-out: Inhibition Rate at 500 nM (%)
Outline: as §1

[4] = biological target: T1, human Cereblon WT GST-tagged protein (Homo sapiens, UniProt Q96SW2); experiment: CRBN-binding affinity, HTRF (CEREBLON BINDING kit); details: for inhibition at 0.5 µM: read-out: Inhibition Rate at 0.5 µM (%); for inhibition at 2 µM: read-out: Inhibition Rate at 2 µM (%)
T1 construct: purchased CISBIO 64BDCRBNPEH
Outline: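 cpd (final 2 µM, 0.5 µM; diluent #9 1X) + GST-CRBN WT + thalidomide-Red/anti-GST Eu mix; HTRF readout. Blanks: diluent + PROTAC binding buffer + detection mix.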

[5] = biological target: T2, ALK (Homo sapiens, UniProt Q96SW2+Q9HC35+Q9UM73); experiment: Western blot, target protein degradation in H2228 Cell; format: cell-based; details: substrate protein remaining %, treated at 500 nM and 50 nM, 24 hours
T2 construct: endogenous in cells; host or cells: H2228
Experimental: (§2) Conventional Western blot assay was performed to evaluate the effects of the compounds of the present disclosure on the expression of target proteins in cells.
(§3) (1) Cell Seeding and Protein Harvesting: The selected cells were processed according to the cell seeding procedure and protein harvesting procedure in Table II-2. Table II-2 Cell Seeding and Protein Harvesting Procedures
(§4) (2) To the collected supernatant, 5X SDS sample loading buffer was added, followed by denaturation at 95°C for 5 minutes. The denatured samples were then separated by SDS-PAGE electrophoresis on a polyacrylamide gel. Proteins were transferred to a nitrocellulose membrane (0.45 µm NC membrane), blocked with blocking buffer at room temperature for 1 hour, and subjected to antibody incubation and development procedures according to the antibody manufacturer's instructions (Cell Signaling Technology).
(§5) Half-Maximal Degradation Concentration value (the drug concentration required for degrading proteins by 50%, abbreviated as DC50) reads method: comparing the grayscale values of Western blot bands from drug-treated samples with those from blank DMSO-treated controls, and identifying the drug concentration range at which the grayscale value is half that of the DMSO-treated control bands.
(§6) DC50 values can be calculated using ImageJ software to measure grayscale values of Western blot bands from drug-treated samples. The concentration-response curve is fitted to estimate the drug concentration corresponding to half the grayscale value.
(§7) Target protein remaining (%) refers to the percentage of target protein remaining in cells after treatment with protein degrader compounds.
(§8) Calculation method for target protein remaining (%): Use ImageJ software to measure grayscale values of Western blot bands from drug (protein degrader)-treated samples. The grayscale value of drug-treated bands is divided by that of internal control protein bands, and the resulting quotient is normalized to obtain the relative percentage of remaining target protein after protein degrader treatment. Target protein degradation rate(%) = 1−target protein remaining(%). [formula]

[6] = biological target: T3, FAK (Homo sapiens, UniProt Q05397); experiment: Western blot, target protein degradation in A549 Cell; format: cell-based; details: substrate protein remaining %, treated at 500 nM and 50 nM, 24 hours
T3 construct: endogenous in cells; host or cells: A549
Experimental: as §2, §3, §4, §5, §6, §7, §8

[7] = test system: SW620; experiment: Tumor cell proliferation inhibition (CellTiter-Meiluncell Luminescent Cell Viability Assay); format: cell-based; details: Homo sapiens, 96 hours, Table I-12, FAK inhibitors; for inhibition at 0.01 µM: SW-620, 10 nM, read-out: Inhibition Rate at 10 nM (%); for inhibition at 0.5 µM: SW-620, 500 nM, read-out: Inhibition Rate at 500 nM (%)
Outline: as §1

T3 sequence (Q05397 whole entry): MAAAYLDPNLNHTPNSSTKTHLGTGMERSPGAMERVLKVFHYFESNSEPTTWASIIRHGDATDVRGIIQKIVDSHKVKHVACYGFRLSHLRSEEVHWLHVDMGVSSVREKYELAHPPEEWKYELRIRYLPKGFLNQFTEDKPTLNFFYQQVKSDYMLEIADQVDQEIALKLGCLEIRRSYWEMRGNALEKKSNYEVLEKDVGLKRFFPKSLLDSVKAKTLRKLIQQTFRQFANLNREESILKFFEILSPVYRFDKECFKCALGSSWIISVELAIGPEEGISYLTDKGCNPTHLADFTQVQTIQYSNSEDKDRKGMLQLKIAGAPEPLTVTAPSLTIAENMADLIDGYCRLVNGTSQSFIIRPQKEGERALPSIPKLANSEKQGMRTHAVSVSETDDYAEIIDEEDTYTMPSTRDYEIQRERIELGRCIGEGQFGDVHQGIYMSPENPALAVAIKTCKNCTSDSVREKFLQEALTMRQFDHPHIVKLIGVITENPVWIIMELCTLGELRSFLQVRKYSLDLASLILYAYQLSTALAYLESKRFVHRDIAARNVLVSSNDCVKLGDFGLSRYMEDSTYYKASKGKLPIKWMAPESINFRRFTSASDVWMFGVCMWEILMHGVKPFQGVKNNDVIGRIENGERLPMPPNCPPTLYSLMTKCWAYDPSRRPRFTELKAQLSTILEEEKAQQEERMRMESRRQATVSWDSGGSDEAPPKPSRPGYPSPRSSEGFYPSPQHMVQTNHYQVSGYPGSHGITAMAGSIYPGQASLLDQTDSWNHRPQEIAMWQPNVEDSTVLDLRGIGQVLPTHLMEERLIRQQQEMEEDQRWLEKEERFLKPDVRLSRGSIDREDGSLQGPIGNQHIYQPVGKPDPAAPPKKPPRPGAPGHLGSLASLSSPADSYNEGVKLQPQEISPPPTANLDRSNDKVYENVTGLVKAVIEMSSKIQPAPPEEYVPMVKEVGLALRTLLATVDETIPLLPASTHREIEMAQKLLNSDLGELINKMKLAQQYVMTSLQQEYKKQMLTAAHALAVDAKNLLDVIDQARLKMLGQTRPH
T1 sequence (Q96SW2 whole entry): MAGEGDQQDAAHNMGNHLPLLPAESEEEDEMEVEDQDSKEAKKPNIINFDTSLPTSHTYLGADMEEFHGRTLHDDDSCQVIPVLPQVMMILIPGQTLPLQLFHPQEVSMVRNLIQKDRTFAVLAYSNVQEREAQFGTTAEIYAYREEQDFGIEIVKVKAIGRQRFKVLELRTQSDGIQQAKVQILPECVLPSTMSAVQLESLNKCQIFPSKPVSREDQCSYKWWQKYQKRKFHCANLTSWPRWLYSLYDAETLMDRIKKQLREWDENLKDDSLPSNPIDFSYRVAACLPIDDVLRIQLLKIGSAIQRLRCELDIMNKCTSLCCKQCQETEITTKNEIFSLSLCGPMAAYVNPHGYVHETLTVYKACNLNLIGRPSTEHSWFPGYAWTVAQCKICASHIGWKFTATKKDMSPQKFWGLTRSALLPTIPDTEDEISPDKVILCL
T2 sequence (Q9HC35+Q9UM73 fused): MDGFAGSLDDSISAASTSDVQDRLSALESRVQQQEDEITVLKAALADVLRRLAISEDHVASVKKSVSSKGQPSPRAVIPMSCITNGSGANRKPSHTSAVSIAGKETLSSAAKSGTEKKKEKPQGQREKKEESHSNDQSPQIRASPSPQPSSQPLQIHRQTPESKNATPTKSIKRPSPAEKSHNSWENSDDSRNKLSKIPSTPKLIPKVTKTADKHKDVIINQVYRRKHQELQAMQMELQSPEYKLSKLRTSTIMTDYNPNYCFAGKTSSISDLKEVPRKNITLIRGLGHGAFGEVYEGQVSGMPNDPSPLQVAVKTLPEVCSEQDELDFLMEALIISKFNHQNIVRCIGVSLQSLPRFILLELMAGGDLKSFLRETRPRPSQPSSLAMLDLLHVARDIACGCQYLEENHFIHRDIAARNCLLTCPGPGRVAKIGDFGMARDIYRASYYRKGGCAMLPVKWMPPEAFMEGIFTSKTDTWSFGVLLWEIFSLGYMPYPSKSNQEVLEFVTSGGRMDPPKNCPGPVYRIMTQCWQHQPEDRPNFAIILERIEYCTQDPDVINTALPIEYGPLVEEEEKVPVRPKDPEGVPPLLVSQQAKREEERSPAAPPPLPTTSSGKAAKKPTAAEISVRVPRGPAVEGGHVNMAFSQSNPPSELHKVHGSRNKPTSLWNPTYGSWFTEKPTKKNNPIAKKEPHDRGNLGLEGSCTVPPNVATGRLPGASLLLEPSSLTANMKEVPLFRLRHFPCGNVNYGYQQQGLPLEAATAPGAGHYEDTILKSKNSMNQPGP
T2 sequence (Q96SW2 whole entry): as the sequence (Q96SW2 whole entry) above
T2 sequence (Q16531 whole entry partner): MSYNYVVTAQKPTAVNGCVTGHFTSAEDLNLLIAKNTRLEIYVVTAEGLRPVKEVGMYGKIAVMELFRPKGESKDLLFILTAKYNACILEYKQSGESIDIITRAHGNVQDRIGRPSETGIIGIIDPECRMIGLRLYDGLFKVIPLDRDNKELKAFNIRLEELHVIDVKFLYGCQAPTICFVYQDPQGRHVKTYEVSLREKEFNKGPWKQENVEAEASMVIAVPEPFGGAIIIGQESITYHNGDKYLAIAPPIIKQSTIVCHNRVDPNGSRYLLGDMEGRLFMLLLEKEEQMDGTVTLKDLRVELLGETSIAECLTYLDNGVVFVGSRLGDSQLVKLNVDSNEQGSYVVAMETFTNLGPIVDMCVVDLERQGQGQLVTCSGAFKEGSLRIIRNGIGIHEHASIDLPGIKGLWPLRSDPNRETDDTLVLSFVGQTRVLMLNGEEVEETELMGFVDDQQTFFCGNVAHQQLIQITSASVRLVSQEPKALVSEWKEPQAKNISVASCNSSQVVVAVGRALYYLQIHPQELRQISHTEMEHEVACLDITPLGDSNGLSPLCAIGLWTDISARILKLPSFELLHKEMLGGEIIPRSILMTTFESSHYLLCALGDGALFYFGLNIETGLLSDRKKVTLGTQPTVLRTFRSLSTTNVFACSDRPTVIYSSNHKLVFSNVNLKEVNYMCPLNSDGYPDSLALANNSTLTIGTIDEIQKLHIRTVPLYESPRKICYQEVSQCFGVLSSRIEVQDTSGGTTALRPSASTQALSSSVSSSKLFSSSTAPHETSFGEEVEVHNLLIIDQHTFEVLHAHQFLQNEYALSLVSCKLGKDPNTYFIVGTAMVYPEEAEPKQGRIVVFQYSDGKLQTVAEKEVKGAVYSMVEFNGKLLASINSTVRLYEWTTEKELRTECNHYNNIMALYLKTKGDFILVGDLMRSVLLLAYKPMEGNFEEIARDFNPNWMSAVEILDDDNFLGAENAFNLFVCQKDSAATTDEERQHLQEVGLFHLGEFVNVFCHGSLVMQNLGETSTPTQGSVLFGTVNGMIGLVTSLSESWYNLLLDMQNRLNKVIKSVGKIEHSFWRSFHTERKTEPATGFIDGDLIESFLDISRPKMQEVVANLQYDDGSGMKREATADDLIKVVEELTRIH

Row | inhibition at 0.5 µM [4] [%] | inhibition at 2 µM [4] [%] | Compound | inhibition at 0.01 µM ([1]; Table I-2, ALK inhibitors) [%] | inhibition at 0.5 µM ([1]; Table I-2, ALK inhibitors) [%] | inhibition at 0.01 µM [2] [%] | inhibition at 0.5 µM [2] [%] | inhibition at 0.01 µM ([3]; Table I-2, ALK inhibitors) [%] | inhibition at 0.5 µM ([3]; Table I-2, ALK inhibitors) [%] | Degradation of substrate protein ALK [5] | Degradation of substrate protein FAK [6] | inhibition at 0.01 µM ([1]; Table I-12, FAK inhibitors) [%] | inhibition at 0.5 µM ([1]; Table I-12, FAK inhibitors) [%] | inhibition at 0.01 µM [7] [%] | inhibition at 0.5 µM [7] [%] | inhibition at 0.01 µM ([3]; Table I-12, FAK inhibitors) [%] | inhibition at 0.5 µM ([3]; Table I-12, FAK inhibitors) [%]
1 | 80 to 100 | 80 to 100 | COc1cc(N2CCN(Cc3ccc4c(c3)CN(C3CCC(=O)NC3=O)C4=S)CC2)ccc1Nc1ncc(Cl)c(Nc2ccccc2P(C)(C)=O)n1 (centres unmarked) [GT-08675, 3-(5-((4-(4-((5-chloro-4-((2-(dimethylphosphoryl)phenyl)amino)pyrimidin-2-yl)amino)-3-methoxyphenyl)piperazin-1-yl)methyl)-1-thioxoisoindolin-2-yl)piperidine-2,6-dione] | 10 to 20 | 70 to 80 | 20 to 30 | 40 to 50 | 10 to 20 | 30 to 40 | A (0% ≤ substrate protein remaining % ≤ 80%) |  |  |  |  |  |  | 
2 | 40 to 53 | 60 to 80 | Cc1cc(Nc2ncc(Cl)c(Nc3ccccc3S(=O)(=O)C(C)C)n2)c(OC(C)C)cc1C1CCN(Cc2cccc3c2CN(C2CCC(=O)NC2=O)C3=S)CC1 (centres unmarked) [GT-08676, 3-(4-((4-(4-((5-chloro-4-((2-(isopropylsulfonyl)pheny 1)amino)pyrimidin-2-yl)amino)-5-isopropoxy-2-methylphenyl)piperidin-1-yl)methyl)-1-thioxoisoindolin-2-yl)piperidine-2,6-dione] | 40 to 50 | 60 to 70 | 40 to 50 | 60 to 70 | 10 to 20 | 30 to 40 | A (0% ≤ substrate protein remaining % ≤ 80%) |  |  |  |  |  |  | 
3 | 60 to 80 | 80 to 100 | COc1cc(N2CCN(Cc3ccc4c(c3)C(=S)N(C3CCC(=O)NC3=O)C4)CC2)ccc1Nc1ncc(Cl)c(Nc2ccccc2P(C)(C)=O)n1 (centres unmarked) [GT-08679, 3-(6-((4-(4-((5-chloro-4-((2-(dimethylphosphoryl)phenyl)amino)pyrimidin-2-yl)amino)-3-methoxyphenyl)piperazin-1-yl)methyl)-1-thioxoisoindolin-2-yl)piperidine-2,6-dione] | 50 to 60 | 80 to 100 | 20 to 30 | 40 to 50 | 10 to 20 | 20 to 30 | A (0% ≤ substrate protein remaining % ≤ 80%) |  |  |  |  |  |  | 
4 | 30 to 40 | 80 to 100 | CN(c1nccnc1CNc1nc(Nc2ccc(N3CCN(Cc4ccc5c(c4)CN(C4CCC(=O)NC4=O)C5=S)CC3)cc2)ncc1C(F)(F)F)S(C)(=O)=O (centres unmarked) [GT-08779, N-(3-(((2-((4-(4-((2-(2,6-dioxopiperidin-3-yl)-1-thioxoisoindolin-5-yl)methyl)piperazin-1-yl)phenyl)amino)-5-(trifluoromethyl)pyrimidin-4-yl)amino)methyl)pyrazin-2-yl)-N-methylmethanesulfonamide] |  |  |  |  |  |  |  | A (0% ≤ substrate protein remaining % ≤ 80%) | 10 to 20 | 70 to 80 |  |  |  | 
5 |  |  | CS(=O)(=O)c1cccc(CNc2nc(Nc3ccc(N4CCN(Cc5ccc6c(c5)CN(C5CCC(=O)NC5=O)C6=S)CC4)cc3)ncc2C(F)(F)F)c1 (centres unmarked) [GT-08780, 3-(5-((4-(4-((4-((3-(methylsulfonyl)benzyl)amino)-5-(trifluoromethyl)pyrimidin-2-yl)amino)phenyl)piperazin-1-yl)methyl)-1-thioxoisoindolin-2-yl)piperidine-2,6-dione] |  |  |  |  |  |  |  | A (0% ≤ substrate protein remaining % ≤ 80%) | 20 to 30 | 70 to 80 | 10 to 20 | 40 to 50 | 20 to 30 | 40 to 50
6 | 53 to 60 | 60 to 80 | CN(c1cccc(CNc2nc(Nc3ccc(N4CCN(Cc5ccc6c(c5)CN(C5CCC(=O)NC5=O)C6=S)CC4)cc3)ncc2C(F)(F)F)c1)S(C)(=O)=O (centres unmarked) [GT-08781, N-(3-(((2-((4-(4-((2-(2,6-dioxopiperidin-3-yl)-1-thioxoisoindolin-5-yl)methyl)piperazin-1-yl)phenyl)amino)-5-(trifluoromethyl)pyrimidin-4-yl)amino)methyl)phenyl) -N-methylmethanesulfonamide] |  |  |  |  |  |  |  | A (0% ≤ substrate protein remaining % ≤ 80%) | 5 to 10 | 60 to 70 |  |  |  | 
7 |  |  | CNC(=O)c1ccccc1Nc1cc(Nc2cc(C)c(C3CCN(Cc4ccc5c(c4)CN(C4CCC(=O)NC4=O)C5=S)CC3)cc2OC(C)C)ncc1C(F)(F)F (centres unmarked) [GT-08782, 2-((2-((4-(1-((2-(2,6-dioxopiperidin-3-yl)-1-thioxoisoindolin-5-yl)methyl)piperidin-4-yl)-2-isopropoxy-5-methylphenyl)amino)-5-(trifluoromethyl)pyridin-4-yl)amino)-N-methylbenzamide] |  |  |  |  |  |  |  | A (0% ≤ substrate protein remaining % ≤ 80%) |  |  |  |  |  | 
8 | 40 to 53 | 60 to 80 | CN(c1nccnc1CNc1nc(Nc2ccc(N3CCN(Cc4cccc5c4CN(C4CCC(=O)NC4=O)C5=S)CC3)cc2)ncc1C(F)(F)F)S(C)(=O)=O (centres unmarked) [GT-08783, N-(3-(((2-((4-(4-((2-(2,6-dioxopiperidin-3-yl)-1-thioxoisoindolin-4-yl)methyl)piperazin-1-yl)phenyl)amino)-5-(trifluoromethyl)pyrimidin-4-yl)amino)methyl)pyrazin-2-yl)-N-methylmethanesulfonamide] |  |  |  |  |  |  |  | A (0% ≤ substrate protein remaining % ≤ 80%) | 20 to 30 | 70 to 80 |  |  |  | 
9 | 53 to 60 | 80 to 100 | CS(=O)(=O)c1cccc(CNc2nc(Nc3ccc(N4CCN(Cc5cccc6c5CN(C5CCC(=O)NC5=O)C6=S)CC4)cc3)ncc2C(F)(F)F)c1 (centres unmarked) [GT-08784, 3-(4-((4-(4-((4-((3-(methylsulfonyl)benzyl)amino)-5-(trifluoromethyl)pyrimidin-2-yl)amino)phenyl)piperazin-1-yl)methyl)-1-thioxoisoindolin-2-yl)piperidine-2,6-dione] |  |  |  |  |  |  |  | A (0% ≤ substrate protein remaining % ≤ 80%) |  |  |  |  |  | 
10 | 40 to 53 | 53 to 60 | CN(c1cccc(CNc2nc(Nc3ccc(N4CCN(Cc5cccc6c5CN(C5CCC(=O)NC5=O)C6=S)CC4)cc3)ncc2C(F)(F)F)c1)S(C)(=O)=O (centres unmarked) [GT-08883, N-(3-(((2-((4-(4-((2-(2,6-dioxopiperidin-3-yl)-1-thioxoisoindolin-4-yl)methyl)piperazin-1-yl)phenyl)amino)-5-(trifluoromethyl)pyrimidin-4-yl)amino)methyl)phenyl) -N-methylmethanesulfonamide] |  |  |  |  |  |  |  | A (0% ≤ substrate protein remaining % ≤ 80%) | 20 to 30 | 70 to 80 | 30 to 40 | 40 to 50 | 10 to 20 | 40 to 50

— patent EP4745138A1, “THIO-GLUTARIMIDO ISOINDOLINONE DERIVATIVE, BIFUNCTIONAL PROTEIN DEGRADER CONTAINING SAME, AND USES THEREOF” (Gluetacs Therapeutics (Shanghai) Co., Ltd., priority 2023, dated 2025)
